Data on one compound can be found in ChEMBL document CHEMBL1153047, “Discovery of N-[(1-aryl-1H-indazol-5-yl)methyl]amides derivatives as smoothened antagonists for inhibition of the hedgehog pathway” (Bioorg Med Chem Lett, 2009).

The target of the experiment is Protein smoothened (Homo sapiens, UniProt Q99835). Description: Inhibition of BODIPY-cyclopamine to Smo in human HEK293 Flag-Smo cells in presence of 2% FCS. It counts as cell-based.

Structures are written as SMILES.

Chain of Protein smoothened (Q99835 whole entry): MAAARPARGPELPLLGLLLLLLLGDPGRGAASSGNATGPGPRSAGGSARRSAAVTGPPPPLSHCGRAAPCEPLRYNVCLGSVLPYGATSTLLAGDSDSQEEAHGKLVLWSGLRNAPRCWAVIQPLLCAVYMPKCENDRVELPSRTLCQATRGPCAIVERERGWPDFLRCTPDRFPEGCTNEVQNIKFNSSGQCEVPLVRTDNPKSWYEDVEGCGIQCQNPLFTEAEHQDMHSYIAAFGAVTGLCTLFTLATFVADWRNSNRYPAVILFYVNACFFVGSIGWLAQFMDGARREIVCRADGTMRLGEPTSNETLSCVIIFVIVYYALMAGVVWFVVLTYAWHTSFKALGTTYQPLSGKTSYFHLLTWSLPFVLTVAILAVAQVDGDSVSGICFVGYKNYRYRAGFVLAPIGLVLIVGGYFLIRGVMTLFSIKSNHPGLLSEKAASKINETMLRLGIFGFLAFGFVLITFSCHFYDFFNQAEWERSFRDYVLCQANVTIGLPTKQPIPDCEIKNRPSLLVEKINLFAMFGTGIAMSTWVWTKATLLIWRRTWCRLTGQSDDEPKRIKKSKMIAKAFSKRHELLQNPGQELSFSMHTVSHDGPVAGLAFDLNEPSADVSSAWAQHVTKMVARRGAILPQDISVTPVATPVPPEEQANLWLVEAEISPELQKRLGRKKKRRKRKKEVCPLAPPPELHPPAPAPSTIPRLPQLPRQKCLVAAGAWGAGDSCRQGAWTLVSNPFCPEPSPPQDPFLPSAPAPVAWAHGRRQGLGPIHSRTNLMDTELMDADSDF

For `O=C(Cc1ccccc1)NCc1ccc2c(cnn2-c2ccc(F)cc2)c1`, the IC50 was over 10 µM.

One may read the IC50 as the concentration that inhibits the measured activity by half.
